# According to patent US20260269287A1, “ALL-NONAQUEOUS MEMBRANE-FREE FLOW BATTERIES” (University of Cincinnati, priority 2023, published 2026):
# Entries after “also recorded” stand apart in the source; their conditions may differ.
# Legend:
# Type in all cases: physicochemical
# [1] = Crossover study of C18-PTZ in the Design-I triphasic system under static conditions (UV-visible, CV); conditions: 0.5 M in FEC phase, 10-day period
# Excerpt: (§1) Selection of the anode and cathode materials. Achieving a high capacity for RFBs requires the selection of redox-active materials with high potential. In this study, Li metal was selected as the anode because of its low electrochemical potential (−3.04 V vs. a standard hydrogen electrode), high energy density, and theoretical capacity (~3,860 mAh/g). Graphite felt (GF) was selected as the cathode owing to its chemical inertness in nonaqueous electrolytes, high electrical conductivity, highly porous structure, and high specific surface area. […] The solubility properties of several redox-active catholyte compounds, including derivatives of phenothiazine, cyclopropenium, 2,2,6,6-tetramethylpiperidinyloxy (TEMPO), anthraquinone (AQ), and ferrocene, were evaluated as the three supporting electrolytes in the triphasic system (FIG. 88). […] The system was evaluated for the potential crossover of 0.5 M C18-PTZ dissolved in the FEC phase. […]
# (§2) Selection of the anode and cathode materials. […] The solubility properties of several redox-active catholyte compounds, including derivatives of phenothiazine, cyclopropenium, 2,2,6,6-tetramethylpiperidinyloxy (TEMPO), anthraquinone (AQ), and ferrocene, were evaluated as the three supporting electrolytes in the triphasic system (FIG. 85). […] The system was evaluated for the potential crossover of 0.5 M C18-PTZ dissolved in the FEC phase. […]
# [2] = Solubility test of C18-PTZ in FEC/LiTFSI; conditions: in FEC/LiTFSI (1.2 M)
# Description: Solubility test. […] The solution was gradually added to a vial containing known amounts of C18-PTZ. Once a clear solution was just obtained, the volume of the electrolyte was determined by an analytical pipette. The solubility of organic compounds was calculated from the ratio of the molar amount to electrolyte volume. These processes are repeated twice, and the averaged values are presented.
# Solubility Test. […] The solution was incrementally added to a vial containing known quantities of C18-PTZ. The addition continued until a clear solution was achieved, at which point the volume of the electrolyte was measured using an analytical pipette. Subsequently, the solubility of the organic compounds was calculated by finding the ratio of the molar amount of C18-PTZ to the volume of the electrolyte. This entire process was repeated twice to ensure accuracy, and the averaged values of the solubility were reported as the final result.
# [3] = RDE linear sweep voltammetry of C18-PTZ in 0.1 M FEC/LiTFSI; conditions: 1 mM in 0.1 M FEC/LiTFSI
# Description: To investigate the electrochemical kinetics of C18-PTZ redox molecules, linear sweep voltammetry (LSV) was conducted using the rotating disk electrode (RDE) technique. The LSV curves of C18-PTZ were measured in electrolyte solutions containing 1.0 mM C18-PTZ in 0.1 M FEC/LiTFSI solution, and the results are presented in FIG. 68(a).
# Calculation of diffusion coefficient and electron transfer rate. Linear sweep voltammetry (LSV) studies were carried out using a Pine modulated speed rotator with Biologic potentiostats. Rotating disk electrode (RDE, diameter: 5 mm), Pt wire electrode and Ag/Ag^+ electrode were used as the working, counter and reference electrodes, respectively. Before testing, the samples were purged with argon for 10 min. LSV dates were collected at different rotation rates ranging from 100 to 1600 rpm. The diffusion coefficient (Do) of electroactive materials were calculated from the Levich plot using Equation 1.
# The kinetic rate constant is calculated by Equation 2.
# The LSV investigations were conducted using a Pine modulated speed rotator paired with Biologic potentiostats. […] The diffusion coefficient (D) of electroactive materials was calculated from the Lévich plot using Equation 1. The kinetic rate constant is calculated by Equation 2.
# [4] = Cyclic voltammetry of C18-PTZ in 0.1 M FEC/LiTFSI
# Description: Electrochemical characterization. CV studies were carried out to estimate the electrochemical properties of redox material (C18-PTZ) as well as the crossover of redox-active cathode material before and after long-term battery cycling. For CV measurements, 5 mM of C18-PTZ solution were prepared in 0.1 M FEC/LiTFSI electrolyte. A 3-mm glassy carbon was used as the working electrode and was polished with 50 nm Al2O3 before measurements. Platinum wire (0.5 mm) was used as the counter electrodes. A Ag/Ag^+ electrode was used as the reference electrode.
# Electrochemical characterization. For the cyclic voltammetry (CV) measurements, C18-PTZ (5 mM) solutions were prepared in FEC/LiTFSI (0.1 M) electrolyte. A glassy carbon disk (CHI Instrument, 3 mm) was used as the working electrode and was polished with aqueous Al2O3(Pine Research Instrumentation, Inc., […]) before the measurements. A piece of Pt wire (Pine Research Instrumentation, Inc., thickness 0.5 mm, purity 99.99%) was used as the counter electrode while an Ag/Ag^+ (MTI Corp) electrode was used as the reference electrode. The CV measurements were performed using a Bio-Logic potentiostat. The charge/discharge performances were evaluated using Land and Bio-Logic potentiostats.
# [5] = Solubility of catholyte compounds in the three supporting electrolytes of the triphasic system
# Excerpt: as §1, §2
compound,measurement,setting,value
CCCCCCCCCCCCCCCCCCN1c2ccccc2Sc2ccccc21 [C18-PTZ],crossover out of the FEC layer,[1],no significant crossover
same,solubility,[2],500 mM
same,kinetic rate constant (k0),[3],0.00351 cm/s
same,diffusion coefficient D,[3]; Levich plot,6.23×10^−6 cm^2/s
same,redox couple potential,[4]; 5 mM in 0.1 M FEC/LiTFSI,0.35 V vs. Ag/Ag^+
same,electrochemical stability on repeated CV cycling,"[4]; FEC/LiTFSI (0.1 M), 50 mV/s, 500 cycles",excellent electrochemical stability; also recorded: high electrochemical stability
same,peak potential separation,[4]; scan rate 50 mV/s,68 mV
same,peak potential separations,"[4]; scan rate 50 mV/s, unit not given",~ 68
same,ratio of cathodic peak current (ipc) and anodic peak current (ipa),[4]; scan rates 50 to 250 mV/s,approximately 1
same,solubility in TEGDME and NFTTS,[5]; anolyte and intermediate layers of triphasic system,poor solubility
same,solubility in FEC,[5]; catholyte solvent of triphasic system,high solubility
